≈ marks a conversion by molar mass, not a printed value. Where two headings read alike, the source gives them in different places.
Columns and labels:
Test in all cases: Bacterial susceptibility testing, MIC by broth microdilution (CLSI)
Assay type in all cases: cell-based
E. coli ATCC25922 = conditions: Escherichia coli
Procedure: (§1) Minimal inhibitory concentrations (MIC) were determined by the broth microdilution method in accordance with the Clinical and Laboratory Standards Institute (CLSI) guidelines. In brief, organism suspensions were adjusted to a final inoculum between 3×10^5 and 7×10^5 colony-forming units (CFU)/mL. Drug dilutions and inocula were made in sterile, cation adjusted Mueller-Hinton Broth (Beckton Dickinson). In wells, an inoculum volume of 100 μL was mixed to 2 μL of DMSO with 2-fold serial dilutions of drug. All inoculated microdilution trays were incubated in ambient air at 35° C. for 18-24 h. Following incubation, the lowest concentration of the drug that prevented visible growth (OD600 nm<0.05) was recorded as the MIC. Performance of the assay was monitored by the use of laboratory quality-control strains and compounds with defined MIC spectrum, in accordance with CLSI guidelines.

K. pneumoniae ATCC13883 = conditions: Klebsiella pneumoniae
Procedure: as §1

P. aeruginosa 209 PAO1 = conditions: Pseudomonas aeruginosa
Procedure: as §1

P. aeruginosa ATCC27835 = conditions: Pseudomonas aeruginosa
Procedure: as §1

[1] = ATCC25922, broth microdilution, 35° C., 18-24 h, read-out: MIC E. coli ATCC25922
[2] = ATCC13883, broth microdilution, 35° C., 18-24 h, read-out: MIC K. pneumoniae ATCC13883
[3] = PAO1, broth microdilution, 35° C., 18-24 h, read-out: MIC P. aeruginosa 209 PAO1
[4] = ATCC27835, broth microdilution, 35° C., 18-24 h, read-out: MIC P. aeruginosa ATCC27835
[5] = ATCC25922, read-out: MIC E. coli ATCC25922
[6] = ATCC13883, read-out: MIC K. pneumoniae ATCC13883
[7] = PAO1, read-out: MIC P. aeruginosa 209 PAO1
[8] = ATCC27835, read-out: MIC P. aeruginosa ATCC27835

| Compound | MIC (E. coli ATCC25922; [1]) [µg/mL] | MIC (K. pneumoniae ATCC13883; [2]) [µg/mL] | MIC (P. aeruginosa 209 PAO1; [3]) [µg/mL] | MIC (P. aeruginosa ATCC27835; [4]) [µg/mL] | MIC (E. coli ATCC25922; [5]) [µg/mL] | MIC (K. pneumoniae ATCC13883; [6]) [µg/mL] | MIC (P. aeruginosa 209 PAO1; [7]) [µg/mL] | MIC (P. aeruginosa ATCC27835; [8]) [µg/mL] |
| --- | --- | --- | --- | --- | --- | --- | --- | --- |
| C[C@H](O)c1nccn1[C@@H](/C=C/c1ccc(-c2ccc(OCC3(CO)COC3)cc2)cc1)CO [Compound 68, (S,E)-2-(2-((S)-1-hydroxyethyl)-1H-imidazol-1-yl)-4-(4′-((3-(hydroxymethyl)oxetan-3-yl)methoxy)-[1,1′-biphenyl]-4-yl)but-3-en-1-ol] | 1 (≈ 2.22 µM) | 2 (≈ 4.44 µM) | 4 (≈ 8.88 µM) | 4 (≈ 8.88 µM) |  |  |  |  |
| C[C@H](O)c1nccn1[C@@H](/C=C/c1ccc(-c2ccc(OCC(O)CN)cc2)cc1)CO (mixture of isomers) [Compound 22, (2S,E)-4-(4′-(3-amino-2-hydroxypropoxy)-[1,1′-biphenyl]-4-yl)-2-(2-((S)-1-hydroxyethyl)-1H-imidazol-1-yl)but-3-en-1-ol] | 16 (≈ 37.8 µM) | 64 (≈ 151 µM) | 4 (≈ 9.44 µM) | 2 (≈ 4.72 µM) |  |  |  |  |
| C[C@H](O)c1nccn1[C@@H](/C=C/c1ccc(-c2ccc([C@H]3C[C@H](NC(=O)CN(C)C)C3)cc2)cc1)CO [Compound 66, 2-(dimethylamino)-N-((1S,3r)-3-(4′-((S,E)-4-hydroxy-3-(2-((S)-1-hydroxyethyl)-1H-imidazol-1-yl)but-1-en-1-yl)-[1,1′-biphenyl]-4-yl)cyclobutyl)acetamide] |  |  |  |  | 4 (≈ 8.19 µM) | 8 (≈ 16.4 µM) | 4 (≈ 8.19 µM) | 4 (≈ 8.19 µM) |
| C[C@H](O)c1nccn1[C@@H](/C=C/c1ccc(-c2ccc(OCC(O)CN(C)C)cc2)cc1)CO (mixture of isomers) [Compound 21, (2S,E)-4-(4′-(3-(dimethylamino)-2-hydroxypropoxy)-[1,1′-biphenyl]-4-yl)-2-(2-((S)-1-hydroxyethyl)-1H-imidazol-1-yl)but-3-en-1-ol] | 16 (≈ 35.4 µM) | 64 (≈ 142 µM) | 8 (≈ 17.7 µM) | 4 (≈ 8.86 µM) |  |  |  |  |
| C[C@H](O)c1nccn1[C@@H](/C=C/c1ccc(-c2ccc(C3CC(NC[C@@H]4CNC(=O)O4)C3)cc2)cc1)CO (stereo partly drawn) [Compound 46, (R)-5-(((3-(4′-((S,E)-4-hydroxy-3-(2-((S)-1-hydroxyethyl)-1H-imidazol-1-yl)but-1-en-1-yl)-[1,1′-biphenyl]-4-yl)cyclobutyl)amino)methyl) oxazolidin-2-one] | 0.5 (≈ 0.995 µM) | 2 (≈ 3.98 µM) | 4 (≈ 7.96 µM) | 4 (≈ 7.96 µM) |  |  |  |  |
| C[C@H](O)c1nccn1[C@@H](/C=C/c1ccc(-c2ccc(C3CC(CNCCO)C3)cc2)cc1)CO (stereo partly drawn) [Compound 61, (S,E)-2-(2-((S)-1-hydroxyethyl)-1H-imidazol-1-yl)-4-(4′-(3-(((2-hydroxyethyl)amino)methyl)cyclobutyl)-[1,1′-biphenyl]-4-yl) but-3-en-1-ol] | 2 (≈ 4.33 µM) | 8 (≈ 17.3 µM) | 4 (≈ 8.67 µM) | 4 (≈ 8.67 µM) |  |  |  |  |
| C[C@H](O)c1nccn1[C@@H](/C=C/c1ccc(-c2ccc(C3CC(C(=O)NCc4cocn4)C3)cc2)cc1)CO (stereo partly drawn) [Compound 54, 3-(4′-((S,E)-4-hydroxy-3-(2-((S)-1-hydroxyethyl)-1H-imidazol-1-yl)but-1-en-1-yl)-[1,1′-biphenyl]-4-yl)-N-(oxazol-4-ylmethyl)cyclobutane-1-carboxamide] | 0.5 (≈ 0.975 µM) | 1 (≈ 1.95 µM) | 2 (≈ 3.9 µM) | 4 (≈ 7.8 µM) |  |  |  |  |
| C[C@H](O)c1nccn1[C@@H](/C=C/c1ccc(-c2ccc(C3CC(CN4CC(S(C)(=O)=O)C4)C3)cc2)cc1)CO (stereo partly drawn) [Compound 58, (S,E)-2-(2-((S)-1-hydroxyethyl)-1H-imidazol-1-yl)-4-(4′-(3-((3-(methylsulfonyl)azetidin-1-yl)methyl)cyclobutyl)-[1,1′-biphenyl]-4-yl)but-3-en-1-ol] | 1 (≈ 1.87 µM) | 2 (≈ 3.73 µM) | 4 (≈ 7.47 µM) | 8 (≈ 14.9 µM) |  |  |  |  |
| C[C@H](O)c1nccn1[C@@H](/C=C/c1ccc(-c2ccc([C@H]3C[C@H](NC(=O)CC#N)C3)cc2)cc1)CO [Compound 65, 2-cyano-N-((1S,3r)-3-(4′-((S,E)-4-hydroxy-3-(2-((S)-1-hydroxyethyl)-1H-imidazol-1-yl)but-1-en-1-yl)-[1,1′-biphenyl]-4-yl)cyclobutyl)acetamide] |  |  |  |  | 0.5 (≈ 1.06 µM) | 1 (≈ 2.13 µM) | 2 (≈ 4.25 µM) | 2 (≈ 4.25 µM) |
| C[C@H](O)c1nccn1[C@@H](/C=C/c1ccc(-c2ccc([C@H]3C[C@H](NC(=O)CS(C)(=O)=O)C3)cc2)cc1)CO [Compound 63, N-((1S,3r)-3-(4′-((S,E)-4-hydroxy-3-(2-((S)-1-hydroxyethyl)-1H-imidazol-1-yl)but-1-en-1-yl)-[1,1′-biphenyl]-4-yl)cyclobutyl)-2-(methylsulfonyl)acetamide] |  |  |  |  | 2 (≈ 3.82 µM) | 4 (≈ 7.64 µM) | 2 (≈ 3.82 µM) | 4 (≈ 7.64 µM) |
| C[C@H](O)c1nccn1[C@@H](/C=C/c1ccc(-c2ccc(C3CC(C(=O)NCc4c[nH]cn4)C3)cc2)cc1)CO (stereo partly drawn) [Compound 55, N-((1H-imidazol-4-yl)methyl)-3-(4′-((S,E)-4-hydroxy-3-(2-((S)-1-hydroxyethyl)-1H-imidazol-1-yl)but-1-en-1-yl)-[1,1′-biphenyl]-4-yl)cyclobutane-1-carboxamide] | 0.5 (≈ 0.977 µM) | 2 (≈ 3.91 µM) | 2 (≈ 3.91 µM) | 2 (≈ 3.91 µM) |  |  |  |  |
| C[C@H](O)c1nccn1[C@@H](/C=C/c1ccc(-c2ccc(C3CC(C(=O)NCC(O)CO)C3)cc2)cc1)CO (stereo partly drawn) [Compound 52, N-(2,3-dihydroxypropyl)-3-(4′-((S,E)-4-hydroxy-3-(2-((S)-1-hydroxyethyl)-1H-imidazol-1-yl)but-1-en-1-yl)-[1,1′-biphenyl]-4-yl)cyclobutane-1-carboxamide] | 4 (≈ 7.91 µM) | 16 (≈ 31.6 µM) | 4 (≈ 7.91 µM) | 4 (≈ 7.91 µM) |  |  |  |  |
| C[C@H](O)c1nccn1C/C=C/c1ccc(-c2ccc(OCCN3CCN(CCN)CC3)cc2)cc1 [Compound 5, (S,E)-1-(1-(3-(4′-(2-(4-(2-aminoethyl)piperazin-1-yl)ethoxy)-[1,1′-biphenyl]-4-yl)allyl)-1H-imidazol-2-yl)ethan-1-ol] | 2 (≈ 4.2 µM) | 4 (≈ 8.41 µM) | 4 (≈ 8.41 µM) | 4 (≈ 8.41 µM) |  |  |  |  |
| C[C@H](O)c1nccn1[C@@H](/C=C/c1ccc(-c2ccc(C3CC(C(=O)NCC#N)C3)cc2)cc1)CO (stereo partly drawn) [Compound 50, N-(cyanomethyl)-3-(4′-((S,E)-4-hydroxy-3-(2-((S)-1-hydroxyethyl)-1H-imidazol-1-yl)but-1-en-1-yl)-[1,1′-biphenyl]-4-yl)cyclobutane-1-carboxamide] | 0.5 (≈ 1.06 µM) | 1 (≈ 2.13 µM) | 2 (≈ 4.25 µM) | 2 (≈ 4.25 µM) |  |  |  |  |
| C[C@H](O)c1nccn1[C@@H](/C=C/c1ccc(-c2ccc(C3CC(CNCC(O)CO)C3)cc2)cc1)CO (stereo partly drawn) [Compound 60, 3-(((3-(4′-((S,E)-4-hydroxy-3-(2-((S)-1-hydroxyethyl)-1H-imidazol-1-yl)but-1-en-1-yl)-[1,1′-biphenyl]-4-yl)cyclobutyl)methyl)amino) propane-1,2-diol] | 8 (≈ 16.3 µM) | 16 (≈ 32.5 µM) | 4 (≈ 8.14 µM) | 4 (≈ 8.14 µM) |  |  |  |  |
| C[C@H](O)c1nccn1[C@@H](/C=C/c1ccc(-c2ccc(C3CC(CNCC#N)C3)cc2)cc1)CO (stereo partly drawn) [Compound 56, 2-(((3-(4′-((S,E)-4-hydroxy-3-(2-((S)-1-hydroxyethyl)-1H-imidazol-1-yl)but-1-en-1-yl)-[1,1′-biphenyl]-4-yl)cyclobutyl)methyl)amino) acetonitrile] | 0.25 (≈ 0.548 µM) | 0.5 (≈ 1.1 µM) | 2 (≈ 4.38 µM) | 4 (≈ 8.76 µM) |  |  |  |  |
| C[C@H](O)c1nccn1[C@@H](/C=C/c1ccc(-c2ccc(OC[C@@H](N)CO)cc2)cc1)CO (single isomer, unassigned) [Compound 10] | 8 (≈ 18.9 µM) | 16 (≈ 37.8 µM) | 1 (≈ 2.36 µM) | 2 (≈ 4.72 µM) |  |  |  |  |
| C[C@H](O)c1nccn1[C@@H](/C=C/c1ccc(-c2ccc(C3CC(C(=O)O)C3)cc2)cc1)CO (stereo partly drawn) [Compound 51, 3-(4′-((S,E)-4-hydroxy-3-(2-((S)-1-hydroxyethyl)-1H-imidazol-1-yl)but-1-en-1-yl)-[1,1′-biphenyl]-4-yl)cyclobutane-1-carboxylic acid] | 4 (≈ 9.25 µM) | 8 (≈ 18.5 µM) | 4 (≈ 9.25 µM) | 4 (≈ 9.25 µM) |  |  |  |  |

Reference: patent US20240150298A1, “ANTIBACTERIAL COMPOUNDS” (Blacksmith Medicines, Inc., priority 2021, published 2024)
